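Five compound concentrations were applied to cells in 96-well plates for 48 hours; endpoints were derived by simple linear interpolation of the resulting dose-response curve. Here, GI50 denotes the concentration required for 50% inhibition of growth. The concentration for full growth arrest is given as TGI.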
What was measured:
Experiment in all cases: NCI-60 cell line screen, 48 h
[1] = test system: RXF 393 renal
[2] = test system: UACC-62 melanoma
[3] = test system: SNB-19 CNS
[4] = test system: MCF7 breast
[5] = test system: IGROV1 ovarian
[6] = test system: SK-MEL-5 melanoma
[7] = test system: OVCAR-4 ovarian
[8] = test system: MOLT-4 leukemia
[9] = test system: CAKI-1 renal
[10] = test system: CCRF-CEM leukemia

Row | Compound | TGI [1] | TGI [2] | TGI [3] | TGI [4] | TGI [5] | TGI [6] | TGI [7] | TGI [8] | TGI [9] | TGI [10] | GI50 [1] | GI50 [2] | GI50 [9] | GI50 [3] | GI50 [4] | GI50 [5] | GI50 [6] | GI50 [10] | GI50 [7] | GI50 [8]
1 | CCSCCC(N)C(=O)O (stereo not drawn) | > 100 µM | > 100 µM | > 100 µM | > 100 µM | > 100 µM | > 100 µM | > 100 µM | > 100 µM | – | – | – | – | – | – | – | – | – | – | – | –
2 | CCOC(=O)CSc1nc(N)c2c(-c3ccc(OC)c(OC)c3)c3c(nc2n1)CCCC3 | > 100 µM | > 100 µM | > 100 µM | > 100 µM | > 100 µM | > 100 µM | > 100 µM | > 100 µM | > 100 µM | > 100 µM | – | – | – | – | – | – | – | – | – | –
3 | CC(=O)Nc1cc([As](=O)(O)O)ccc1O | > 100 µM | > 100 µM | > 100 µM | > 100 µM | > 100 µM | > 100 µM | > 100 µM | > 100 µM | > 100 µM | > 100 µM | – | – | – | – | – | – | – | – | – | –
4 | CCN(CC)CC(C)Nc1ccc([N+](=O)[O-])c2sc3ccccc3c(=O)c12 (stereo not drawn) | 5.71 µM | 2.52 µM | 32.7 µM | 2.36 µM | 4.18 µM | 2.26 µM | > 100 µM | – | 4.09 µM | 10.5 µM | 1.65 µM | 1.09 µM | 0.657 µM | 2.07 µM | 0.452 µM | 1.08 µM | 1.08 µM | 2.44 µM | 3.48 µM | –
5 | ONc1ncnc2nc[nH]c12 | – | > 100 µM | > 100 µM | – | > 100 µM | > 100 µM | > 100 µM | > 100 µM | > 100 µM | > 100 µM | – | – | – | – | – | – | – | – | – | –
6 | O=C(CCCCCCC(=O)Nc1ccc(N(CCCl)CCCl)cc1)NO | 4.74 µM | 5.09 µM | 29 µM | 24.3 µM | 21.2 µM | 2.92 µM | 32.4 µM | 4.26 µM | 11.2 µM | > 100 µM | 1.64 µM | 1.09 µM | 1.2 µM | 4.12 µM | 1.48 µM | 2.51 µM | 1.33 µM | 0.405 µM | 3.37 µM | 0.421 µM
7 | Cc1nc(N)nc(N)c1-c1ccc(Cl)c(Cl)c1 | > 79.9 µM | > 51.1 µM | > 100 µM | > 100 µM | > 100 µM | > 44.7 µM | > 100 µM | > 100 µM | > 100 µM | > 100 µM | – | – | – | – | – | – | – | – | – | –
8 | COc1cc(C2C(C(=O)O)=C(CO)Oc3cc4c(cc32)OCO4)cc(OC)c1O (stereo not drawn) | – | > 100 µM | > 100 µM | – | > 100 µM | > 100 µM | > 100 µM | > 100 µM | > 100 µM | > 100 µM | – | – | – | – | – | – | – | – | – | –
9 | CCS(=O)(=O)Nc1ccc(Nc2c3ccccc3nc3ccccc23)c(OC)c1 | 9.6 µM | 4.02 µM | 6.41 µM | 6.15 µM | 22.4 µM | 12.9 µM | 16.1 µM | 10.6 µM | 4.08 µM | – | – | – | – | – | – | – | – | – | – | –
10 | CNC(=O)OC(C)CN1c2ccccc2Sc2ccc(Cl)cc21 (stereo not drawn) | > 10 µM | > 10 µM | > 10 µM | > 10 µM | > 10 µM | > 10 µM | > 10 µM | > 10 µM | > 10 µM | > 10 µM | – | – | – | – | – | – | – | – | – | –
11 | C[C@]12CC[C@@H]3c4ccc(OP(=O)(O)O)cc4CC[C@H]3[C@@H]1CCC2=O | > 100 µM | > 100 µM | > 100 µM | > 100 µM | > 100 µM | 69.2 µM | > 100 µM | > 100 µM | > 100 µM | > 100 µM | – | – | – | – | – | – | – | – | – | –
12 | CC1SC(c2ccccc2)N(CCc2cccs2)C1=O (stereo not drawn) | 20.4 µM | 18.8 µM | 19.9 µM | 15.2 µM | 74.4 µM | 3.15 µM | 13 µM | 12.4 µM | 16.2 µM | 35.2 µM | 6.76 µM | 3.42 µM | 3.15 µM | 5.06 µM | 3.36 µM | 4.72 µM | 1.67 µM | 3.26 µM | 2.45 µM | 2.98 µM
13 | Cc1cccc2nc3c(C(=O)NCCN(C)C)cccc3cc12 | 4.13 µM | 3.38 µM | 5.2 µM | 9.44 µM | 7.11 µM | 3.06 µM | 7.46 µM | – | 8.49 µM | 5.41 µM | – | – | – | – | – | – | – | – | – | –
14 | COc1ccc2nc(N/N=C/C(C)=N/Nc3cc(C)c4cc(OC)ccc4n3)cc(C)c2c1 | > 83.1 µM | 64.6 µM | 55.8 µM | 29.8 µM | 47.1 µM | 72.8 µM | 35.6 µM | 42.1 µM | 76.1 µM | 5.45 µM | – | – | – | – | – | – | – | – | – | –
15 | O=C(N/N=C(/c1ccccc1)C(F)(F)F)c1ccncc1 | > 100 µM | > 100 µM | > 100 µM | > 100 µM | > 100 µM | > 100 µM | – | > 100 µM | > 100 µM | > 100 µM | – | – | – | – | – | – | – | – | – | –
16 | CCOC(=O)c1nc2ccc(Cl)cc2c2c1Cc1ccccc1-2 | > 100 µM | > 100 µM | > 100 µM | – | > 100 µM | > 100 µM | > 100 µM | > 100 µM | > 100 µM | – | – | – | – | – | – | – | – | – | – | –
17 | CCCc1[nH]c(SCCCCCCCCSc2nc(-c3ccc(F)cc3)c(CCC)[nH]2)nc1-c1ccc(F)cc1 | > 100 µM | > 100 µM | > 100 µM | – | > 100 µM | 67.1 µM | 95.4 µM | > 100 µM | – | > 100 µM | – | – | – | – | – | – | – | – | – | –
18 | N=c1c2c(C(N)=O)cn(C3OC(CO)C(O)C3O)c2ncn1O (stereo not drawn) | 3.71 µM | 0.283 µM | > 100 µM | – | > 100 µM | 0.174 µM | 6.81 µM | 0.491 µM | 0.399 µM | 1.46 µM | – | – | – | – | – | – | – | – | – | –
19 | N=C(N)c1ccc(-c2ccc(-c3cc(Cl)cc(Cl)c3)o2)nc1 | – | 3.36 µM | 3.1 µM | 3.6 µM | 3.79 µM | 3.25 µM | – | 5.05 µM | 3.35 µM | – | – | 1.78 µM | 1.76 µM | 1.63 µM | 1.73 µM | 2.09 µM | 1.77 µM | – | – | 2.46 µM
20 | COc1ccc2nc(-c3ccc(-c4noc(-c5cc(OC)c(OC)c(OC)c5)n4)cc3)[nH]c2c1 | 19.1 µM | 33.4 µM | 36.8 µM | 22.1 µM | 69.1 µM | 17.3 µM | 4.79 µM | 59.1 µM | 54.9 µM | > 100 µM | 5.24 µM | 14 µM | 23.4 µM | 12.7 µM | 1.08 µM | 26.3 µM | 3.25 µM | 2.2 µM | 1.88 µM | 5.29 µM
21 | O=S(=O)(O)c1ccc2cccc(N=Nc3c(O)ccc4ccccc34)c2c1 | > 100 µM | > 100 µM | > 100 µM | > 100 µM | > 100 µM | > 100 µM | > 100 µM | > 100 µM | > 100 µM | > 100 µM | – | – | – | – | – | – | – | – | – | –
22 | CN(C)CC(=O)Nc1ccc(Cn2nnc3c2C(=O)c2nnn(Cc4ccc(NC(=O)CN(C)C)cc4)c2C3=O)cc1 | – | 0.432 µM | – | – | – | 0.286 µM | 0.179 µM | – | > 100 µM | 0.747 µM | – | 0.201 µM | 2.59 µM | – | – | – | 0.151 µM | 0.204 µM | 0.0473 µM | –

From PubChem BioAssay (NCI)
